One compound from patent US7132287B2, “Method for neural stem cell differentiation using 5HT-1A agonists” (Psychiatric Genomics, Inc., priority 2001, dated 2006) can be followed below.

The test system of test [1] is striatal stem cells. As to the kind of experiment: Differentiation of striatal stem cells (TuJ1 positive cells). The class given is cell-based, rat. Conditions: for % TuJ1 positive cells: striatal stem cells, Table 6. An excerpt: Isolation of cortical and striatal stem cells. Timed pregnant Sprague Dawley rats obtained from Taconic at embryonic age E14-E15 were sacrificed as described above and the uterus removed and placed in ice cold PBS in a 10 cm petridish. After rinsing the uterus in PBS, embryos were removed from the uterus, rinsed in PBS and collected in cold HBSS (buffered with HEPES and sodium bicarbonate) in a 10 cm petridish and placed on ice.
The cortex and striatum was dissected under a microscope and collected in a 15 ml tube of HBSS, on ice. Removal of meninges is not possible at this age, and no attempt was made to do so. If the dissected tissue was in large enough chunks and settle to the bottom of the tube, no centrifugation was performed. Alternatively, the tube was centrifuged at 1000 rpm for 5 minutes to pellet the tissue. Following centrifugation, the 15 ml tube containing the tissue was sprayed with 70% ethanol and taken into the sterile hood.
The HBSS was aspirated and replaced with 10 ml of DMEM/F12. The tissue was collected at the bottom of the tube by gravity or centrifugation, medium was aspirated, and 1 ml of DMEM/F12 was to the tissue. Cells were dissociated by trituration as described above, followed by addition of 5 ml of DMEM/F12 and a second round of trituration. […] The tubes were placed standing 5–10 minutes in the hood to allow larger particles and meninges to settle. While the meninges were settling, a cell count was made. 10 μl of the cell suspension is diluted with trypan blue and counted in a hemocytometer. Cells were counted in the four outer chambers with the larger squares, and cell count calculated assuming that the volume enclosed in each of the chambers was […].
Plating, expansion and passaging of cortical and striatal stem cells A generous amount of the triturated cell suspension was left in the original 15 ml tube to avoid fibroblast contamination in cultures. About 4–5 ml of the 6 ml of cells suspension was used for plating. Cells were plated at a concentration of approximately 1×10^6 per 10 cm dish. This culture is designated P0 (passage 0).
Following plating cells were expanded for about 3–4 days. The cultures were never permitted to reach more than 70% confluency. Cultures were then passaged as follows: 5 ml of HBSS was added to each 10 cm dish and the cells incubated at 37° C. for 15–45 minutes, or until sufficient numbers of the stem cells were rounded up. It is not expected that all cells in the culture will round up as there are several cell types in the culture at P0. The pH of the HBSS should be neutral at all times during this incubation. Cells were then removed from the dish by pipetting with a 5 ml pipette, or by scraping with a policeman, collected in a 15 or 50 ml conical tube, and centrifuged at 1000 g for 5 minutes. Cells were gently re-suspended in medium, counted, and plated at a density of about 1×10^6 per 10 cm dish.
(§1) Drug treatments. Stem cells obtained as described above were treated with drugs and subjected to differentiation protocols in the second passage. Cells were plated at a density of 1×10^4 cells per well of a 12-well petridish (Falcon).
Drug treatments were started on the next day. […] The WAY 100635 antagonist compound was used simultaneously with buspirone or serotonin in the blocking experiments. Positive and negative control cultures were those treated with BDNF and FGF alone, respectively. […]

The subject of test [2] is cerebellar stem cells. As to the kind of experiment: Astrocytic differentiation of cerebellar stem cells (GFAP positive cells). The class given is cell-based, rat. Conditions: for % GFAP positive cells: Table 2 experiment. Here is the method: as §1
Drug treatments were started on the next day. […] The WAY 100635 antagonist compound was used simultaneously with buspirone or serotonin in the blocking experiments. Positive and negative control cultures were those treated with BDNF and FGF alone, respectively.
Cells were treated with the designated concentrations of drugs or combinations thereof, daily, and were fed every alternate day with fresh medium. Experiments were maintained for about 6–10 days in most cases. Cells were fixed on about day 7–11 with a 4% solution of para-formaldehyde (PFA) in PBS, prepared as follows:
Immunofluorescent staining and visualization. After fixation, the PBS was aspirated from the fixed cells and the cells were treated with blocking solution (10% normal goat serum-NGS-Jackson Labs), 0.3% Triton-Sigma, in PBS) to saturate non-specific sites and permeabilize the cells. Following blocking, cells were incubated with the following designated primary antibodies diluted in 5% NGS for 1 hour at room temperatuare: mouse monoclonal anti-MAP-2 (Sigma): 1/250 dilution; mouse monoclonal anti-β tubulin III (Covance): 1/600 dilution; mouse anti-monoclonal glial fibrillary acidic protein (GFAP-ICN Biomedicals): 1/100 dilution.
After the 1 hour incubation, cells were washed three times for 5 min each with PBS followed by incubation of a goat anti-mouse secondary antibody conjugated with stains Cy2 and Cy3 (Jackson Labs) for 1 hr at RT (dilution 1/100 as with the primary antibodies). Following three 5 minute washes with PBS, cells were incubated with the nuclear stain bis-benzimide (Sigma) for 10 min at RT. Cells were then washed 3 times with ultra-pure water and glass coverslips were mounted on them using AquaPolymount (Polysciences, Inc., PA) The mount was allowed to dry and the dishes were stored at 4° C.
For visualization of staining, the mounted cells were viewed under a fluorescent microscope using the appropriate ultra violet filters. An eyepiece with an engraved grid was used to count the cells that stained positive for β tubulin III (TuJ-1), MAP2 or GFAP. The percent of cells positive for a given antigen was estimated by counting nuclei of all cells present in the same field, as the nuclei of the cells stain blue with the bis benzimide. Five fields were counted per treatment condition, and averages with standard deviations were calculated.
To evaluate whether buspirone affected differentiation of neural stem cells into other neural cell types such as astrocytes, the buspirone-treated cerebellar cell cultures described above were subjected to immunofluorescence using a monoclonal antibody against an astrocyte-specific marker, glial fibrillary acidic protein, or GFAP.

Turning to `O=C1CC2(CCCC2)CC(=O)N1CCCCN1CCN(c2ncccn2)CC1` [buspirone, 8-[4-[4-(2-pyrimidinyl)-1-piperazinyl]butyl]-8-azaspiro[4,5]decane-7,9-dione], the “% TuJ1 positive cells” value in test [1] (100 nM) is 54.4 ± 2.1%; in test [1] (500 nM), 64.8 ± 2.1%; in test [1] (10 μM), 67.9 ± 10.2%; in test [1] (100 μM) it was 68.5 ± 6.5%. The “promotion of differentiation compared to untreated control cultures (in words)” value in test [1] (striatum, concentrations as low as 100 nM) is reported as “able to promote differentiation significantly”. Further, the “% GFAP positive cells” value in test [2] (10 nM) is listed as 26.3 ± 3.7%; in test [2] (30 nM), 12.9 ± 1.9%; in test [2] (100 nM) it was 20.6 ± 5.2%; in test [2] (300 nM) it was 21.4 ± 4.6%; in test [2] (1000 nM), 27.0 ± 9.0%. Besides, the “effect on astrocytic differentiation” value in test [2] (30 nM to 1 μM, FIG. 1B and FIG. 4) was “does not have any appreciable reproducible effects”.
